Data reported in PubChem BioAssay AID256 (DTP/NCI, 2004).
“And” between values parts separate entries of the source, which are not always exact repeats. Identical values can stand only once. Inconclusive results and toxic doses are left out. Rule for the calls: active = survival T/C of 150% or more; inactive = T/C below 125% in these data.

System: CD2F1 mice, L1210 leukemia ip, survival T/C
Assay: NCI In Vivo Anticancer Drug Screen. Data for tumor model L1210 Leukemia (intraperitoneal) in CD2F1 (CDF1) mice
Settings: higher = longer survival
Method in brief: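 Antitumor effect is scored in animals hosting a serially transplanted tumor. Values compare compound-dosed animals against vehicle-only controls as a simple quotient.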

[1] = endpoint: mean survival time, dose: 100.0 mg/kg/injection, schedule: Q01DX001 (ip), vehicle: saline with Tween-80
[2] = endpoint: mean survival time, dose: 200.0 mg/kg/injection, schedule: Q01DX001 (ip), vehicle: saline with Tween-80
[3] = endpoint: mean survival time, dose: 100.0 mg/kg/injection, schedule: Q04DX003 (ip), vehicle: saline
[4] = endpoint: mean survival time, dose: 200.0 mg/kg/injection, schedule: Q04DX003 (ip), vehicle: saline
[5] = endpoint: mean survival time, dose: 400.0 mg/kg/injection, schedule: Q04DX003 (ip), vehicle: saline
[6] = endpoint: mean survival time, dose: 4.0 mg/kg/injection, schedule: Q03HX024 (ip), vehicle: saline
[7] = endpoint: mean survival time, dose: 25.0 mg/kg/injection, schedule: Q04DX003 (ip), vehicle: saline
[8] = endpoint: mean survival time, dose: 50.0 mg/kg/injection, schedule: Q04DX003 (ip), vehicle: saline

Measured: T/C

C[C@]12CCC(=O)C=C1CC[C@H]1[C@@H]3CC[C@](O)(C(=O)CF)[C@@]3(C)C[C@H](O)[C@@]12F
inactive: endpoint: mean survival time, dose: 50.0 mg/kg/injection, schedule: Q01DX001 (sc), vehicle: saline sonified 103 % of control | endpoint: mean survival time, dose: 50.0 mg/kg/injection, schedule: Q04DX003 (sc), vehicle: Klucel (hydroxypropylcellulose) (HPC) 104 % of control | endpoint: mean survival time, dose: 100.0 mg/kg/injection, schedule: Q01DX001 (sc), vehicle: saline sonified 101 % of control | endpoint: mean survival time, dose: 100.0 mg/kg/injection, schedule: Q04DX003 (sc), vehicle: Klucel (hydroxypropylcellulose) (HPC) 102 % of control | endpoint: mean survival time, dose: 200.0 mg/kg/injection, schedule: Q01DX001 (sc), vehicle: saline sonified 103 % of control | endpoint: mean survival time, dose: 200.0 mg/kg/injection, schedule: Q04DX003 (sc), vehicle: Klucel (hydroxypropylcellulose) (HPC) 104 % of control

O=S(=O)(N(c1ccccc1)S(=O)(=O)C(F)(F)F)C(F)(F)F
inactive: endpoint: mean survival time, dose: 50.0 mg/kg/injection, schedule: Q01DX009 (ip), vehicle: Klucel (hydroxypropylcellulose) (HPC) 91 % of control | endpoint: mean survival time, dose: 100.0 mg/kg/injection, schedule: Q01DX009 (ip), vehicle: Klucel (hydroxypropylcellulose) (HPC) 88 % of control | endpoint: mean survival time, dose: 200.0 mg/kg/injection, schedule: Q01DX009 (ip), vehicle: Klucel (hydroxypropylcellulose) (HPC) 88 % of control

O=c1[nH]cc(Oc2ccccc2)c(=O)[nH]1
inactive: endpoint: mean survival time, dose: 50.0 mg/kg/injection, schedule: Q01DX001 (ip), vehicle: saline with Tween-80 104 % of control | [1] 96 % of control | [2] 98 % of control

CCOP(=O)(OCC)C(C)OC (stereo unspecified)
inactive: [3] 97 % of control | [4] 108 % of control | [5] 97 % of control

COC1=C(c2ccccc2)/C(=C/c2ccccc2)OC1=O
inactive: [1] 104 % of control | [2] 96 % of control | endpoint: mean survival time, dose: 400.0 mg/kg/injection, schedule: Q01DX001 (ip), vehicle: saline with Tween-80 93 % of control

Cn1ncc2c1NC(c1ccc(F)cc1)SCC2=O (stereo unspecified)
inactive: endpoint: mean survival time, dose: 25.0 mg/kg/injection, schedule: Q01DX009 (ip), vehicle: gum acacia 95 % of control and 96 % of control | endpoint: mean survival time, dose: 50.0 mg/kg/injection, schedule: Q01DX009 (ip), vehicle: gum acacia 97 % of control and 101 % of control | endpoint: mean survival time, dose: 100.0 mg/kg/injection, schedule: Q01DX009 (ip), vehicle: gum acacia 92 % of control and 95 % of control and 103 % of control | endpoint: mean survival time, dose: 200.0 mg/kg/injection, schedule: Q01DX009 (ip), vehicle: gum acacia 96 % of control and 104 % of control | endpoint: mean survival time, dose: 400.0 mg/kg/injection, schedule: Q01DX009 (ip), vehicle: gum acacia 100 % of control

O=S(=O)(O)CCCBr
inactive: endpoint: mean survival time, dose: 100.0 mg/kg/injection, schedule: Q01DX009 (ip), vehicle: saline 93 % of control | endpoint: mean survival time, dose: 200.0 mg/kg/injection, schedule: Q01DX009 (ip), vehicle: saline 105 % of control | endpoint: mean survival time, dose: 400.0 mg/kg/injection, schedule: Q01DX009 (ip), vehicle: saline 100 % of control

CN1CCCN(C)C1c1ccccc1O
inactive: endpoint: mean survival time, dose: 12.5 mg/kg/injection, schedule: Q01DX009 (ip), vehicle: saline with Tween-80 105 % of control | endpoint: mean survival time, dose: 25.0 mg/kg/injection, schedule: Q01DX009 (ip), vehicle: saline with Tween-80 102 % of control | endpoint: mean survival time, dose: 50.0 mg/kg/injection, schedule: Q01DX009 (ip), vehicle: saline with Tween-80 107 % of control

CC(=O)NNC(=O)c1ccc(N(C)C)cc1
inactive: endpoint: mean survival time, dose: 12.5 mg/kg/injection, schedule: Q01DX009 (ip), vehicle: other 92 % of control | endpoint: mean survival time, dose: 25.0 mg/kg/injection, schedule: Q01DX009 (ip), vehicle: other 88 % of control | endpoint: mean survival time, dose: 50.0 mg/kg/injection, schedule: Q01DX009 (ip), vehicle: other 88 % of control | endpoint: mean survival time, dose: 100.0 mg/kg/injection, schedule: Q01DX009 (ip), vehicle: other 92 % of control | endpoint: mean survival time, dose: 200.0 mg/kg/injection, schedule: Q01DX009 (ip), vehicle: other 92 % of control

CC(=O)OCCN1CCN(CCCN2c3ccccc3Sc3ccc(C(F)(F)F)cc32)CC1
inactive: endpoint: mean survival time, dose: 2.6 mg/kg/injection, schedule: Q03HX024 (ip), vehicle: saline 108 % of control | [6] 104 % of control | endpoint: mean survival time, dose: 6.0 mg/kg/injection, schedule: Q03HX024 (ip), vehicle: saline 121 % of control | endpoint: mean survival time, dose: 12.5 mg/kg/injection, schedule: Q01DX001 (ip), vehicle: saline 118 % of control and 105 % of control | endpoint: mean survival time, dose: 12.5 mg/kg/injection, schedule: Q01DX009 (ip), vehicle: saline 100 % of control | endpoint: mean survival time, dose: 25.0 mg/kg/injection, schedule: Q01DX001 (ip), vehicle: saline 117 % of control and 118 % of control | endpoint: mean survival time, dose: 25.0 mg/kg/injection, schedule: Q01DX009 (ip), vehicle: saline 95 % of control | endpoint: mean survival time, dose: 50.0 mg/kg/injection, schedule: Q01DX001 (ip), vehicle: saline 114 % of control | endpoint: mean survival time, dose: 50.0 mg/kg/injection, schedule: Q01DX009 (ip), vehicle: saline 89 % of control | endpoint: mean survival time, dose: 100.0 mg/kg/injection, schedule: Q01DX001 (ip), vehicle: saline 109 % of control

CN(/N=C/c1ccccc1)C(=N)N
inactive: endpoint: mean survival time, dose: 15.62 mg/kg/injection, schedule: Q04DX003 (ip), vehicle: saline 101 % of control | endpoint: mean survival time, dose: 31.25 mg/kg/injection, schedule: Q04DX003 (ip), vehicle: saline 107 % of control | endpoint: mean survival time, dose: 62.5 mg/kg/injection, schedule: Q04DX003 (ip), vehicle: saline 103 % of control

Cc1nc(Cl)c2cnccn12
inactive: endpoint: mean survival time, dose: 12.5 mg/kg/injection, schedule: Q04DX003 (ip), vehicle: saline 96 % of control | [7] 100 % of control | [8] 104 % of control

CC(C)NC(=O)CCn1c(=O)c2ccccc2c(=O)n1C
inactive: [7] 98 % of control | [8] 98 % of control | [3] 96 % of control | [4] 106 % of control | [5] 101 % of control

NC(=O)NO
inactive: [6] 95 % of control | endpoint: mean survival time, dose: 8.0 mg/kg/injection, schedule: Q03HX024 (ip), vehicle: saline 97 % of control | endpoint: mean survival time, dose: 62.0 mg/kg/injection, schedule: Q03HX024 (ip), vehicle: saline 90 % of control | endpoint: mean survival time, dose: 100.0 mg/kg/injection, schedule: Q03DX003 (ip), vehicle: saline 110 % of control | [4] 100 % of control | endpoint: median survival time, dose: 25.0 mg/kg/injection, schedule: Q03HX024 (ip), vehicle: saline 120 % of control | endpoint: median survival time, dose: 100.0 mg/kg/injection, schedule: Q06HX016 (ip), vehicle: saline 99 % of control | endpoint: median survival time, dose: 200.0 mg/kg/injection, schedule: Q06HX016 (ip), vehicle: saline 99 % of control

N=C(N)c1ccc(N=Nc2c(O)ccc3cc(O)ccc23)cc1
inactive: endpoint: median survival time, dose: 12.5 mg/kg/injection, schedule: Q01DX005 (ip), vehicle: Klucel (hydroxypropylcellulose) (HPC) 104 % of control and 107 % of control | endpoint: median survival time, dose: 25.0 mg/kg/injection, schedule: Q01DX005 (ip), vehicle: Klucel (hydroxypropylcellulose) (HPC) 100 % of control and 102 % of control | endpoint: median survival time, dose: 50.0 mg/kg/injection, schedule: Q01DX005 (ip), vehicle: Klucel (hydroxypropylcellulose) (HPC) 90 % of control and 103 % of control | endpoint: median survival time, dose: 100.0 mg/kg/injection, schedule: Q01DX005 (ip), vehicle: Klucel (hydroxypropylcellulose) (HPC) 95 % of control and 107 % of control | endpoint: median survival time, dose: 200.0 mg/kg/injection, schedule: Q01DX005 (ip), vehicle: Klucel (hydroxypropylcellulose) (HPC) 104 % of control

CNC(=S)N1CCSN1NC
inactive: endpoint: mean survival time, dose: 100.0 mg/kg/injection, schedule: Q04DX002 (ip), vehicle: saline with Tween-80 91 % of control | endpoint: mean survival time, dose: 200.0 mg/kg/injection, schedule: Q04DX002 (ip), vehicle: saline with Tween-80 95 % of control | endpoint: mean survival time, dose: 400.0 mg/kg/injection, schedule: Q04DX002 (ip), vehicle: saline with Tween-80 86 % of control
